# Patent EP1900728A1 (Genecare Research Institute Co., Ltd, priority 2005, dated 2006)
# Where two headings read alike, the source gives them in different places.
# Tests used:
# [1] = biological target: T1, IκBα ubiquitinating enzyme (SCF complex: ROC1, Cullin1, Skp1, His-TrCP1; with E1, UbcH5b) (Homo sapiens, UniProt P62877+P63208+Q13616+Q9Y297); assay: Measurement of ubiquitinating enzyme activity (IκBα ubiquitination, time-resolved fluorescence with Eu(K)-labeled ubiquitin and XL665-labeled anti-GST antibody); format: biochemical
# T1 construct: His (polyhistidine); made in house; host or cells: insect cells (baculovirus) for the SCF complex and His-E1; E. coli for His-UBCH5b
# T1 sequence (Q9Y297 whole entry): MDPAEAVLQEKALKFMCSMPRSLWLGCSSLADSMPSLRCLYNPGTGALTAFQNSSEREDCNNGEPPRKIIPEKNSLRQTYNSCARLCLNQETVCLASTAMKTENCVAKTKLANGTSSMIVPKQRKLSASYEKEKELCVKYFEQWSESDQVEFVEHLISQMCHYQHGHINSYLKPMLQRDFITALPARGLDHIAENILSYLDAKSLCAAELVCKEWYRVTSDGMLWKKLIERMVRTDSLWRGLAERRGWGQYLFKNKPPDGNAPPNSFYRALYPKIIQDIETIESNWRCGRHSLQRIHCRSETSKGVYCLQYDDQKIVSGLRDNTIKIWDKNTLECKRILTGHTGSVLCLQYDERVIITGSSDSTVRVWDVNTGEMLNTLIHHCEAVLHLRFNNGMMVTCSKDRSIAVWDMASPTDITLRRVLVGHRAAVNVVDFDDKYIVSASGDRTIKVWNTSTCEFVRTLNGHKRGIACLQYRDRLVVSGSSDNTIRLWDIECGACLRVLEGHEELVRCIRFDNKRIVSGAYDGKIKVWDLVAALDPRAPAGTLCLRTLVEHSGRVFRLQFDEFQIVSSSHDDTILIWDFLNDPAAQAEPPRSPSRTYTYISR
# T1 sequence (Q13616 whole entry): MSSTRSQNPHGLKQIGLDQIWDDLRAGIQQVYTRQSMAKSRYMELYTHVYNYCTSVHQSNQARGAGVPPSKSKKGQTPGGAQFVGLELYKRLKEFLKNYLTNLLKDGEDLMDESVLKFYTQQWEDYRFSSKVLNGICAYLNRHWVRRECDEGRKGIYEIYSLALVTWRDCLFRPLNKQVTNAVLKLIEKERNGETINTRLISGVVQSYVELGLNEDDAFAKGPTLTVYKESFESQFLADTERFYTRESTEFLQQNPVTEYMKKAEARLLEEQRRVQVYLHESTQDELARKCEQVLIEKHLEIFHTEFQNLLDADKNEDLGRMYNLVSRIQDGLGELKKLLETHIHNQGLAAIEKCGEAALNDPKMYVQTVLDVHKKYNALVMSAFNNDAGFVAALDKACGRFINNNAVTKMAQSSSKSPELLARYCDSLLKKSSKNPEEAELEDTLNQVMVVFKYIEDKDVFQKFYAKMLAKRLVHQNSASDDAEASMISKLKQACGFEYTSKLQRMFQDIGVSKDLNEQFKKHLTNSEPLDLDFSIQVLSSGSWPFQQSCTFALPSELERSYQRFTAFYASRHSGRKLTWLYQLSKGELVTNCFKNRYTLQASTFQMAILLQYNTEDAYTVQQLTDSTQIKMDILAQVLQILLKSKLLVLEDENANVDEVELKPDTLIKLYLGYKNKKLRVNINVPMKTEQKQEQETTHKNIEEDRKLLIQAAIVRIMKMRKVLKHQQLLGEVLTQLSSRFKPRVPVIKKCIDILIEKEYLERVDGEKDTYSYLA
# T1 sequence (P63208 whole entry): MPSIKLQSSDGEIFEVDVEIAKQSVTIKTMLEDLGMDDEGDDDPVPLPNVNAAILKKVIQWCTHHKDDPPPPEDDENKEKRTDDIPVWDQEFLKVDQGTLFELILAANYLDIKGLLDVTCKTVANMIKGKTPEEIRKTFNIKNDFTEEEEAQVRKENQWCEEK
# T1 sequence (P62877 whole entry): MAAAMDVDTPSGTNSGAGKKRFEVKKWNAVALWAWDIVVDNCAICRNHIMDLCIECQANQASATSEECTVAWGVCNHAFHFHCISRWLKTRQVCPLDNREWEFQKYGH
# Method in brief: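 Human SCF complex with E1 and UbcH5b ubiquitinated GST-IκBα pre-phosphorylated by IKKβ (2 mM ATP, pH 7.4, 1 h, RT), with Eu(K)-ubiquitin, 30 min RT. Stopped with EDTA, XL665 anti-GST added for 2 h; 665/620 nm TR-FRET ratio. % inhibition versus no-compound control and no-SCF blank gave IC50.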
# [2] = test system: ICAM-1 expression in HT-29 cells; assay: Measurement of ICAM-1 expressing activity (TNFα-induced ICAM-1 expression, cell ELISA); format: cell-based; settings: Homo sapiens, Table 6, cell activity inhibition test by method (3), read-out: EVALUATION (IC50 class, inhibition of cell activity)
# Method in brief: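 HT-29 cells pretreated with compound (0.5% DMSO final) for 30 min at 37°C, then stimulated with 30 ng/mL human TNFα for 4 h. Surface ICAM-1 measured by cell ELISA on methanol-fixed cells: anti-ICAM-1 plus POD secondary, TMBZ substrate, absorbance at 450 nm.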
# [3] = enzyme activity inhibition test, method (1), Table 5, read-out: EVALUATION
Compound,IC50 [2],"IC50 [1, 3]",IC50 [1],"IC50 ([1]; read-out: EVALUATION, enzyme activity inhibition test, method (1), Table 5)"
CC1=NN(c2ccc(C(=O)O)cc2)C(=O)C1=Cc1ccc(OCc2ccc([N+](=O)[O-])cc2)cc1 [Compound 541],< 10 µM,,< 10 µM,
"COCC1=NN(c2ccc(C(=O)O)cc2)C(=O)C1=Cc1ccc(OCc2ccccc2)c(OC)c1 [Compound 234, 4-[4-(Benzyloxy-3-methoxy-benzylidine)-3-methoxymethyl-5-oxo-4,5-dihydroxy-pyrazol-1-yl] benzoic acid]",< 10 µM,,,< 10 µM
COc1cc(/C=C2\C(=O)N(c3ccc(C(=O)O)cc3)N=C2c2ccoc2)ccc1O [Compound 244],10 to 20 µM,< 10 µM,,
CC1=NN(c2ccc(S(N)(=O)=O)cc2)C(=O)/C1=C\c1ccc(OCC(=O)O)cc1 [Compound 214],< 40 µM,10 to 20 µM,,
COc1cc(C=C2C(=O)N(Cc3ccccc3)N=C2C)ccc1O [Compound 201],10 to 20 µM,,< 10 µM,
COC(=O)N1CCN(c2ccc(C=C3C(=O)N(c4ccccc4)N=C3Cc3ccccc3)cc2)CC1 [Compound 25],< 40 µM,,10 to 20 µM,
COc1cc(C=C2C(=O)N(c3cccc4ccccc34)N=C2C)ccc1O [Compound 195],10 to 20 µM,,< 10 µM,
CC1=NN(c2ccc(S(N)(=O)=O)cc2)C(=O)/C1=C\c1ccc(-c2ccccc2)cc1 [Compound 117],10 to 20 µM,< 10 µM,,
COCCC1=NN(c2ccc(C(=O)O)cc2)C(=O)/C1=C\c1ccc(-c2ccccc2F)o1 [Compound 522],< 10 µM,< 10 µM,,
CN1CCN(c2ccc(/C=C3\C(=O)N(c4ccc(C(=O)O)cc4)N=C3C3CC3)cc2)CC1 [Compound 321],< 40 µM,< 10 µM,,
CC1=NN(c2ccc(S(N)(=O)=O)cc2)C(=O)/C1=C\c1ccc(N2CCCCC2)cc1 [Compound 126],10 to 20 µM,10 to 20 µM,,
CCCNC(=O)COc1ccc(C=C2C(=O)N(c3ccc(S(N)(=O)=O)cc3)N=C2C)cc1 [Compound 211],< 40 µM,,10 to 20 µM,
COc1ccc(C2=NN(c3ccc(C(=O)O)cc3)C(=O)C2=Cc2ccc(O)c(OC)c2)cc1 [Compound 324],< 10 µM,,< 10 µM,
CC1=NN(c2ccc(S(N)(=O)=O)cc2)C(=O)C1=Cc1cccc2ccccc12 [Compound 119],< 10 µM,,10 to 20 µM,
CC1=NN(c2ccc(C(=O)O)cc2)C(=O)C1=Cc1ccc(OCC(=O)N(C)C)cc1 [Compound 535],10 to 20 µM,,10 to 20 µM,
O=C(O)c1ccc(N2N=C(c3ccoc3)/C(=C/c3ccc(-n4ccnc4)cc3)C2=O)cc1 [Compound 250],< 40 µM,< 10 µM,,
O=C(O)c1ccc(N2N=C(c3ccoc3)C(=Cc3ccc(N4CCN(c5ccccc5)CC4)cc3)C2=O)cc1 [Compound 433],< 10 µM,,< 10 µM,
CC1=NN(c2ccc(S(N)(=O)=O)cc2)C(=O)/C1=C\c1ccc(NC(=O)c2ccccc2)cc1 [Compound 224],10 to 20 µM,< 10 µM,,
CC1=NN(c2cccc(C(=O)N3CCCC3CO)c2)C(=O)/C1=C\c1ccc2[nH]ccc2c1 (stereo not drawn) [Compound 372],10 to 20 µM,< 10 µM,,
O=C(O)c1ccc(N2N=C(c3ccoc3)/C(=C/c3ccc(-n4cncn4)cc3)C2=O)cc1 [Compound 252],< 40 µM,< 10 µM,,
COC(=O)N1CCN(c2ccc(/C=C3\C(=O)N(c4ccc(C(=O)O)cc4)N=C3Cc3ccccc3)cc2)CC1 [Compound 266],10 to 20 µM,< 10 µM,,
CC1=NN(c2ccc(S(N)(=O)=O)cc2)C(=O)/C1=C\c1ccccc1OS(=O)(=O)c1ccc(C)cc1 [Compound 220],< 10 µM,10 to 20 µM,,
COC(=O)N1CCN(c2ccc(C=C3C(=O)N(c4ccc(C(=O)O)cc4)N=C3C3CC3)cc2)CC1 [Compound 315],< 10 µM,,< 10 µM,
COc1ccc(C(=O)Nc2ccc(C=C3C(=O)N(c4ccc(S(N)(=O)=O)cc4)N=C3C)cc2)cc1 [Compound 229],10 to 20 µM,,< 10 µM,
Cn1cc(-c2ccc(/C=C3\C(=O)N(Cc4cccc(O)c4)N=C3c3ccoc3)o2)cn1 [Compound 188],< 40 µM,10 to 20 µM,,

# Continued, in another order:
IC50 [2],"IC50 [1, 3]",Compound,IC50 [1],"IC50 ([1]; read-out: EVALUATION, enzyme activity inhibition test, method (1), Table 5)"
< 10 µM,< 10 µM,CCOC(=O)c1ccc(COc2ccc(/C=C3\C(=O)N(c4ccc(S(N)(=O)=O)cc4)N=C3C)cc2OC)o1 [Compound 154],,
10 to 20 µM,10 to 20 µM,O=C(O)c1cccc(N2N=C(c3ccoc3)/C(=C/c3ccc(N4CCCC4)cc3)C2=O)c1 [Compound 478],,
< 10 µM,< 10 µM,COCC1=NN(c2ccc(C(=O)O)cc2)C(=O)/C1=C\c1ccc(-n2cncn2)cc1 [Compound 243],,
< 10 µM,10 to 20 µM,COc1cccc(-c2ccc(/C=C3\C(=O)N(c4cccc(C(=O)O)c4)N=C3C)o2)c1 [Compound 503],,
10 to 20 µM,10 to 20 µM,O=C(O)c1ccc(N2N=C(c3ccoc3)/C(=C/c3cccc4nccnc34)C2=O)cc1 [Compound 329],,
< 40 µM,10 to 20 µM,CC1=NN(c2ccc(S(N)(=O)=O)cc2)C(=O)C1=Cc1ccc(O)cc1 [Compound 218],,
< 40 µM,< 10 µM,CC1=NN(c2cccc(C(=O)N3CCC(O)CC3)c2)C(=O)/C1=C\c1ccc2[nH]ccc2c1 [Compound 373],,
< 40 µM,< 10 µM,CC1=NN(c2ccc(C(=O)O)cc2)C(=O)/C1=C\c1ccc(N2CCCCC2)cc1 [Compound 350],,
10 to 20 µM,10 to 20 µM,CC(=O)c1ccc(-c2ccc(/C=C3\C(=O)N(c4cccc(C(=O)O)c4)N=C3C)o2)cc1 [Compound 504],,
10 to 20 µM,< 10 µM,CC1=NN(Cc2cccc(O)c2)C(=O)/C1=C\c1ccc(-c2ccccc2F)o1 [Compound 185],,
< 40 µM,< 10 µM,O=C(O)c1ccc(N2N=C(C3CC3)/C(=C/c3ccc4[nH]ccc4c3)C2=O)cc1 [Compound 482],,
< 40 µM,10 to 20 µM,O=C(O)c1ccc(N2N=C(c3ccoc3)/C(=C/c3nccs3)C2=O)cc1 [Compound 249],,
< 40 µM,10 to 20 µM,COc1ccc(C2=NN(c3ccccc3)C(=O)/C2=C\c2ccc3c(c2)OCCO3)cc1OC [Compound 37],,
< 40 µM,< 10 µM,CC1=NN(c2cccc(C(=O)O)c2)C(=O)C1=Cc1ccc(N2CCN(c3ccccc3)CC2)cc1 [Compound 423],,
< 40 µM,< 10 µM,CC1=NN(c2cccc(C(=O)O)c2)C(=O)/C1=C\c1ccc2c(ccn2CC2CC2)c1 [Compound 499],,
< 40 µM,< 10 µM,CC1=NN(c2ccc(S(N)(=O)=O)cc2)C(=O)/C1=C\c1ccc(NC(=O)/C=C/c2ccccc2)cc1 [Compound 230],,

IC50 [2],"IC50 [1, 3]",Compound,IC50 [1],"IC50 ([1]; read-out: EVALUATION, enzyme activity inhibition test, method (1), Table 5)"
< 40 µM,10 to 20 µM,O=C(O)c1ccc(N2N=C(Cc3ccccc3)/C(=C/c3ccc(-n4ccnc4)cc3)C2=O)cc1 [Compound 271],,
< 10 µM,10 to 20 µM,O=C(O)c1ccc(N2N=C(Cc3ccccc3)/C(=C/c3ccc4c(c3)OCCO4)C2=O)cc1 [Compound 272],,
< 40 µM,< 10 µM,CC1=NN(c2ccc(C(=O)O)cc2)C(=O)/C1=C\c1ccc2c(ccn2Cc2cc(C)on2)c1 [Compound 496],,
10 to 20 µM,10 to 20 µM,CCCCC1=NN(c2ccc(C(=O)O)cc2)C(=O)/C1=C\c1cccc2nccnc12 [Compound 297],,
< 40 µM,< 10 µM,COc1cc(/C=C2\C(=O)N(c3ccccc3)N=C2c2ccoc2)ccc1O [Compound 11],,
< 40 µM,< 10 µM,CC1=NN(c2ccc(C(=O)O)cc2)C(=O)/C1=C\c1ccc(OCC(=O)N2CCOCC2)cc1 [Compound 538],,
10 to 20 µM,< 10 µM,Cn1cc(-c2ccc(/C=C3\C(=O)N(c4cccc(C(=O)O)c4)N=C3c3ccoc3)o2)cn1 [Compound 491],,
10 to 20 µM,< 10 µM,O=C(O)c1ccc(N2N=C(C3CC3)/C(=C/c3ccc4ccccc4c3)C2=O)cc1 [Compound 313],,
< 40 µM,< 10 µM,CC1=NN(c2ccc(C(=O)O)cc2)C(=O)/C1=C\c1ccc2c(ccn2Cc2csc(C)n2)c1 [Compound 500],,
10 to 20 µM,< 10 µM,O=C(O)c1cccc(N2N=C(c3ccoc3)/C(=C/c3ccc(-c4cnn(Cc5ccccc5)c4)o3)C2=O)c1 [Compound 490],,
10 to 20 µM,< 10 µM,CC1=NN(c2cccc(C(=O)O)c2)C(=O)/C1=C\c1ccc([N+](=O)[O-])o1 [Compound 425],,
< 40 µM,< 10 µM,O=C(O)c1ccc(N2N=C(C3CC3)/C(=C/c3ccc(-n4cncn4)cc3)C2=O)cc1 [Compound 323],,
< 40 µM,10 to 20 µM,CC1=NN(c2ccc(S(N)(=O)=O)cc2)C(=O)/C1=C\c1ccc2c(c1)OCCO2 [Compound 108],,
10 to 20 µM,< 10 µM,COc1ccc(C2=NN(c3ccc(C(=O)O)cc3)C(=O)/C2=C\c2ccc(OCc3ccccc3)c(OC)c2)cc1OC [Compound 277],,
10 to 20 µM,< 10 µM,CC1=NN(c2cccc(C(=O)O)c2)C(=O)/C1=C\c1ccc(N2CCN(c3ccc(F)cc3)CC2)cc1 [Compound 449],,
< 10 µM,< 10 µM,CCCCC1=NN(c2ccc(C(=O)O)cc2)C(=O)/C1=C\c1ccc2c(c1)OCCO2 [Compound 303],,
